Assays:
bphA gene promoter = test: bphA promoter-GFP fusions, benzoic acid-dependent GFP expression; assay type: cell-based, Aspergillus nidulans strain GR5; conditions: 8 mM benzoic acid, 5 hours; full promoter (1.8 kbp) and FR6 (0.4 kbp)
Description: In order to determine the minimal promoter length capable of retaining benzoic acid inducibility, promoter fusions to the Green Fluorescent Protein (GFP) gene were prepared. The full bphA promoter and shorter versions of it were PCR amplified using primers BPHPFwd (5′-[…]-3′, SEQ ID NO:19), BPHFR6 (5′-[…]-3′, SEQ ID NO:20), BPH331 (5′-[…]-3′, SEQ ID NO:21), and BPHPRev (5′-[…]-3′, SEQ ID NO:22). These primers introduced HindIII restriction sites (underlined) at both ends, which allowed cloning of the fragments upstream of the GFP gene contained within the pEBFP vector (Clontech, Palo Alto, Calif.).
The promoter-GFP fusions were called pBPH-1847-GFP, pBPH-531-GFP, and pBPH331-GFP, respectively. The selectable marker Pyr4 gene from Neurospora crassa, driven by its own promoter, was used to select putative A. nidulans transformed clones. The selectable marker was PCR-amplified from the pBS-Pyr4 vector using primers PyrEcoF (5′-[…]-3′, SEQ ID NO:23), and PyrEcoR (5′-[…]-3′, SEQ ID NO:24), which introduced EcoRI restriction sites (underlined) on both ends of the product. […]
Aspergillus nidulans GR5 protoplasts were prepared according to Aramayo and Timberlake ((1993) EMBO J. 12: 2039-2048), with some modifications. […] Concentration of protoplasts was determined using a hemacytometer, and adjusted to 10^8 protoplasts per mL. […]

bphA gene = test: RNA (Northern) blot of bphA gene transcription in mycelia; assay type: cell-based, Aspergillus niger
Description: The time course gene expression induction was examined by analyzing total RNA at different times after adding benzoic acid. Northern (RNA) blots were carried out using total RNA extracted from mycelia grown for different periods of time in the presence of benzoic acid. Initially, the fungus was inoculated in CM medium (Pontecorvo (1953) Adv. Genet. 5: 141-238) for 24 hours, transferred to benzoate-containing medium (0.1% w/v) for different times, and total RNA was extracted using the Rneasy Plant Total RNA kit (Qiagen Inc, Valencia, Calif.) according to the manufacturer's instructions. Total RNA was resolved on a formaldehyde-agarose gel and transferred to a Hybond-N nylon membrane (Amersham Life Sci. Inc, Arlington Heights, Ill.). Radiolabeled BPH probe was allowed to hybridize to the membrane, as described above. Northern blot methods were also carried out as recommended (Amersham).
Different benzoate concentrations and inducers were used to better characterize the inducibility of the bphA gene. Gene expression was assayed by Northern blots. Benzoate 4-hydroxylase activity is also assessed by enzymatic assays to confirm the inducibility at the transcriptional level described by Van Gorcom et al. ((1990) Mol. Gen. Genet. 223, 192-197). Inducibility is also verified by reverse transcription of mRNAs produced under induction conditions.
To verify the inducibility of the bphA gene by benzoic acid, A. niger was inoculated in complete medium and grown for 24 hours before being transferred to fresh medium containing 0.1% benzoic acid. Mycelia were harvested after different periods of induction, and total RNA was extracted.

O=C(O)c1ccccc1 [benzoic acid]
GFP expression from bphA promoter-GFP fusions (bphA gene promoter): able to induce GFP expression only in the presence of the inducer | induction of transcription of the bphA gene (bphA gene; 8 mM inducer, RNA blot (FIG. 4)): induced | benzoic acid concentrations as low as ... induce transcription of the bphA gene (bphA gene; concentration curves): 0.8 mM

From patent publication US7705203B2, “Benzoate inductible promoters” (Purdue Research Foundation, priority 2002, dated 2010)
